Experimental data taken from patent publication US20240239752A1, “BICYCLIC HETEROAROMATIC INHIBITORS OF KLK5” (BioCryst Pharmaceuticals, Inc., priority 2021, published 2024).

target: T1, recombinant human KLK5 (Homo sapiens, UniProt Q9Y337); experiment: Kallikrein (KLK) 5 enzymatic assay (Boc-VPR-AMC fluorogenic substrate); type: biochemical; conditions: recombinant human KLK5 0.1 μg/well, Boc-VPR-AMC 100 μM, pH 7.5, room temperature, 1% DMSO; tested a minimum of three times
T1 construct: purchased Novoprotein or R&D Systems C415 or 1108-SE
T1 sequence (Q9Y337 23-293): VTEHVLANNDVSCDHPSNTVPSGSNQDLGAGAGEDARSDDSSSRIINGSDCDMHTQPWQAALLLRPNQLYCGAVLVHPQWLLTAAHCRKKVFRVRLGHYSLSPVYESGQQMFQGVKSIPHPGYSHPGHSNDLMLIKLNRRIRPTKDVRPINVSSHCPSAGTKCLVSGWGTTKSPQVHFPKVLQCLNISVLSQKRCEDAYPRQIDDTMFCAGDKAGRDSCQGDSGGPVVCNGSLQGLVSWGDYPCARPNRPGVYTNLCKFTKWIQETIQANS
Outline: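 Fluorogenic rate assay at pH 7.5 (0.1 M NaH2PO4, 1% DMSO, room temperature), run at least three times per compound. Compound was premixed with 0.1 μg/well recombinant human KLK5 before adding 100 μM Boc-VPR-AMC; AMC release was read at ex 380/em 460 nm, and IC50 derived from inhibition of rate vs DMSO control.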

First: CCOC(=O)Cc1cccc(C#N)c1OCc1nn(C2CCC2)c2ccc(Br)cc12 [Compound 174c, ethyl 2-(2-((5-bromo-1-cyclobutyl-1H-indazol-3-yl)methoxy)-3-cyanophenyl)acetate]
Second: N=C(N)c1cccc(-c2ccc3c(c2)c(COc2ccccc2CC(=O)O)nn3C2CC2)c1 [Compound 59d, 2-(2-((5-(3-carbamimidoylphenyl)-1-cyclopropyl-1H-indazol-3-yl)methoxy)phenyl)acetic acid]
The IC50 of the first is higher: 1000 to 10000 nM for the first, less than 1000 nM for the second. The second is the more potent here.

First: Nc1nccc2c(-c3ccc4nn(C5CCC5)c(COc5cc(C(F)(F)F)ccc5CC(=O)O)c4c3)cccc12 [Compound 152b, 2-(2-((5-(1-aminoisoquinolin-5-yl)-2-cyclobutyl-2H-indazol-3-yl)methoxy)-4-(trifluoromethyl)phenyl)acetic acid]
Second: Nc1nccc2c(-c3ccc4c(c3)c(COc3ccccc3CC(=O)O)nn4C3CC3)cccc12 [Compound 65b, 2-(2-((5-(1-aminoisoquinolin-5-yl)-1-cyclopropyl-1H-indazol-3-yl)methoxy)phenyl)acetic acid]
The IC50 of the first is higher: 1000 to 10000 nM for the first, less than 1000 nM for the second.

`CC(C)n1nc(COc2ccccc2CC(=O)O)c2cc(-c3ccc4c(N)noc4c3)ccc21` [Compound 49a, 2-(2-((5-(3-aminobenzo[d]isoxazol-6-yl)-1-isopropyl-1H-indazol-3-yl)methoxy)phenyl)acetic acid] and `CC(C)n1nc(COc2ccccc2CC(=O)O)c2cc(-c3ccc4c(N)n[nH]c4c3)ccc21` [Compound 67c, 2-(2-((3′-amino-1-isopropyl-1H, 1′H-[5,6′-biindazol]-3-yl)methoxy)phenyl)acetic acid] cannot be ordered by IC50: greater than 10000 nM for the first, greater than 10000 nM for the second.

`CCOC(=O)N1CC(n2nc3ccc(-c4ccc5ccnc(N)c5c4)cc3c2COc2ccccc2CC(=O)O)C1` [Compound 127b, 2-(2-((5-(1-aminoisoquinolin-7-yl)-2-(1-(ethoxycarbonyl)azetidin-3-yl)-2H-indazol-3-yl)methoxy)phenyl)acetic acid] and `CC(C)CCN1CC(n2nc3ccc(-c4ccc5ccnc(N)c5c4)cc3c2COc2ccccc2CC(=O)O)C1` [Compound 124b, 2-(2-((5-(1-aminoisoquinolin-7-yl)-2-(1-isopentylazetidin-3-yl)-2H-indazol-3-yl)methoxy)phenyl)acetic acid] fall in the same range of IC50: 1000 to 10000 nM for the first, 1000 to 10000 nM for the second.

`Cc1cccc(OC2CC3(CCOCC3)c3ccc(-c4ccc5ccnc(N)c5c4)cc32)c1CC(=O)O` (centres unmarked) [Compound 352c, 2-(2-((5-(1-aminoisoquinolin-7-yl)-2,2′,3,3′,5′,6′-hexahydrospiro[indene-1,4′-pyran]-3-yl)oxy)-6-methylphenyl)acetic acid] and `CCOC(=O)N1CCC2(CC1)CC(Oc1cccc(C)c1CC(=O)O)c1cc(-c3ccc4ccnc(N)c4c3)ccc12` (centres unmarked) [Compound 404c, 2-(2-((5-(1-aminoisoquinolin-7-yl)-1′-(ethoxycarbonyl)-2,3-dihydrospiro[indene-1,4′-piperidin]-3-yl)oxy)-6-methylphenyl)acetic acid] cannot be ordered by IC50: less than 1000 nM for the first, less than 1000 nM for the second.

`Nc1nccc2c(-c3ccc4c(c3)C(Oc3ccccc3CC(=O)O)CC43CCCCC3)cccc12` (centres unmarked) [Compound 376f, 2-(2-((5′-(1-aminoisoquinolin-5-yl)-2′,3′-dihydrospiro[cyclohexane-1,1′-inden]-3′-yl)oxy)phenyl)acetic acid] and `Cc1cccc(OC2CC3(CCCC3)c3ccc(-c4cccc5c(N)nccc45)cc32)c1CC(=O)O` (centres unmarked) [Compound 366c, 2-(2-((5′-(1-aminoisoquinolin-5-yl)-2′,3′-dihydrospiro[cyclopentane-1,1′-inden]-3′-yl)oxy)-6-methylphenyl)acetic acid] cannot be ordered by IC50: less than 1000 nM for the first, less than 1000 nM for the second.

First: Nc1nccc2ccc(-c3cc(F)c4c(c3)C(Oc3ccccc3CC(=O)O)CC4)cc12 (centres unmarked) [Compound 207e, 2-(2-((6-(1-aminoisoquinolin-7-yl)-4-fluoro-2,3-dihydro-1H-inden-1-yl)oxy)phenyl)acetic acid]
Second: N#Cc1cccc(CC(=O)O)c1O[C@@H]1CCc2ccc(-c3ccc4ccnc(N)c4c3)cc21 [Compound 429d, (R)-2-(2-((6-(1-aminoisoquinolin-7-yl)-2,3-dihydro-1H-inden-1-yl)oxy)-3-cyanophenyl)acetic acid]
The IC50 of the first is lower: less than 1000 nM for the first, 1000 to 10000 nM for the second. The first is the more potent here.

First: NCc1cc(-c2cccc3c(N)nccc23)cc2c(COc3ccccc3CC(=O)O)n[nH]c12 [Compound 280a, 2-(2-((5-(1-aminoisoquinolin-5-yl)-7-(aminomethyl)-1H-indazol-3-yl)methoxy)phenyl)acetic acid]
Second: CCn1nc(COc2ccccc2CC(=O)O)c2cc(-c3cccc4c(N)nccc34)ccc21 [Compound 178f, 2-(2-((5-(1-aminoisoquinolin-5-yl)-1-ethyl-1H-indazol-3-yl)methoxy)phenyl)acetic acid]
The IC50 of the first is higher: 1000 to 10000 nM for the first, less than 1000 nM for the second.

Going from `COc1c(CN)cccc1-c1cc2c(COc3ccccc3CC(=O)O)cccc2o1` [Compound 300d, 2-(2-((2-(3-(aminomethyl)-2-methoxyphenyl)benzofuran-4-yl)methoxy)phenyl)acetic acid] to `CC[C@H](C)n1nc(COc2ccccc2CC(=O)O)c2cc(-c3cccc4c(N)nccc34)ccc21` [Compound 193b, (S)-2-(2-((5-(1-aminoisoquinolin-5-yl)-1-(sec-butyl)-1H-indazol-3-yl)methoxy)phenyl)acetic acid], the IC50 falls from greater than 10000 nM to less than 1000 nM.

`COc1cccc(OCc2nn(C3CCC3)c3ccc(-c4cccc5c(N)nccc45)cc23)c1CC(=O)O` [Compound 173b, 2-(2-((5-(1-aminoisoquinolin-5-yl)-1-cyclobutyl-1H-indazol-3-yl)methoxy)-6-methoxyphenyl)acetic acid] and `CCOC(=O)N1CC[C@H](n2nc(COc3cccc(C)c3CC(=O)O)c3cc(-c4cccc5c(N)nccc45)ccc32)C1` [Compound 344b, (S)-2-(2-((5-(1-aminoisoquinolin-5-yl)-1-(1-(ethoxycarbonyl)pyrrolidin-3-yl)-1H-indazol-3-yl)methoxy)-6-methylphenyl)acetic acid] cannot be ordered by IC50: less than 1000 nM for the first, less than 1000 nM for the second.

`CCC(=O)N1CCC2(CC1)CC(Oc1ccccc1CC(=O)O)c1cc(-c3cccc4c(N)nccc34)ccc12` (single isomer, unassigned; (+)) [Compound 385d, (+)-2-(2-((5-(1-aminoisoquinolin-5-yl)-1′-propionyl-2,3-dihydrospiro[indene-1,4′-piperidin]-3-yl)oxy)phenyl)acetic acid] and `CC(=O)N1CCC2(CC1)CC(Oc1cccc(C)c1CC(=O)O)c1cc(-c3cccc4c(N)nccc34)ccc12` (centres unmarked) [Compound 407b, 2-(2-((1′-acetyl-5-(1-aminoisoquinolin-5-yl)-2,3-dihydrospiro[indene-1,4′-piperidin]-3-yl)oxy)-6-methylphenyl)acetic acid] cannot be ordered by IC50: less than 1000 nM for the first, less than 1000 nM for the second.

First: CC(C)n1nc(COc2ccccc2CC(=O)O)c2cc(-c3cccc4c(N)n[nH]c34)ccc21 [Compound 31c, 2-(2-((3′-amino-1-isopropyl-1H, 1′H-[5,7′-biindazol]-3-yl)methoxy)phenyl)acetic acid]
Second: CC[C@@H](C)n1nc(COc2ccccc2CC(=O)O)c2cc(-c3cccc4c(N)nccc34)ccc21 [Compound 191b, (R)-2-(2-((5-(1-aminoisoquinolin-5-yl)-1-(sec-butyl)-1H-indazol-3-yl)methoxy)phenyl)acetic acid]
The IC50 of the first is higher: 1000 to 10000 nM for the first, less than 1000 nM for the second. The second is the more potent here.

First: CC(C)n1nc(COc2ccccc2CC(=O)O)c2cc(-c3cccc(C(=N)N)c3)ccc21 [Compound 6b, 2-(2-((5-(3-carbamimidoylphenyl)-1-isopropyl-1H-indazol-3-yl)methoxy)phenyl)acetic acid]
Second: Cc1ccc2c(N)nccc2c1-c1ccc2c(c1)c(COc1ccccc1CC(=O)O)nn2C(C)C [Compound 78d, 2-(2-((5-(1-amino-6-methylisoquinolin-5-yl)-1-isopropyl-1H-indazol-3-yl)methoxy)phenyl)acetic acid]
The IC50 of the first is lower: less than 1000 nM for the first, 1000 to 10000 nM for the second.

`Cc1cccc(O[C@@H]2CCc3ccc(-c4cccc5c(N)nccc45)cc32)c1CC(=O)O` [Compound 259c, (R)-2-(2-((6-(1-aminoisoquinolin-5-yl)-2,3-dihydro-1H-inden-1-yl)oxy)-6-methylphenyl)acetic acid] and `Nc1nccc2c(-c3ccc4c(c3)c(COc3ccccc3CC(=O)O)nn4C3CCCCO3)cccc12` (centres unmarked) [Compound 92b, 2-(2-((5-(1-aminoisoquinolin-5-yl)-1-(tetrahydro-2H-pyran-2-yl)-1H-indazol-3-yl)methoxy)phenyl)acetic acid] cannot be ordered by IC50: less than 1000 nM for the first, less than 1000 nM for the second.

`CCCN1CCC2(CC1)C[C@@H](Oc1ccccc1CC(=O)O)c1cc(-c3ccc4ccnc(N)c4c3)ccc12` [Compound 416c, (R)-2-(2-((5-(1-aminoisoquinolin-7-yl)-1′-propyl-2,3-dihydrospiro[indene-1,4′-piperidin]-3-yl)oxy)phenyl)acetic acid] and `Nc1nccc2ccc(-c3ccc4[nH]nc(COc5ccccc5CC(=O)O)c4c3)cc12` [Compound 98a, 2-(2-((5-(1-aminoisoquinolin-7-yl)-1H-indazol-3-yl)methoxy)phenyl)acetic acid] cannot be ordered by IC50: less than 1000 nM for the first, less than 1000 nM for the second.

`CC(C)CCN1CC(Cn2nc(COc3ccccc3CC(=O)O)c3cc(-c4cccc5c(N)nccc45)ccc32)C1` [Compound 308b, 2-(2-((5-(1-aminoisoquinolin-5-yl)-1-((1-isopentylazetidin-3-yl)methyl)-1H-indazol-3-yl)methoxy)phenyl)acetic acid] and `Nc1nccc2c(-c3ccc4c(c3)c(C#Cc3ccccc3CC(=O)O)cn4C3CCOC3)cccc12` (centres unmarked) [Compound 301f, 2-(2-((5-(1-aminoisoquinolin-5-yl)-1-(tetrahydrofuran-3-yl)-1H-indol-3-yl)ethynyl)phenyl)acetic acid] cannot be ordered by IC50: less than 1000 nM for the first, less than 1000 nM for the second.
